According to patent US5919799A, “Imidazothiazole compound” (Nikken Chemicals Co., Ltd., priority 1995, dated 1999):
Structures can show the parent of a compound that is named as a salt.

Assays:
[1] = test system: VJ-300 cells (multidrug resistant clones of KB cells); test: In vitro suppression of proliferation of VJ-300 cells by co-administration with vincristine; format: cell-based, Human; details: co-administered VCR and test compound (1 μg/ml), relative to VCR alone in KB = 1
Procedure: (§1) As the incubation solution, an Eagle MEM medium (made by Nissui Seiyakusha) containing 10% fetal calf serum (made by Flow Laboratories Co.) and 0.292 mg/ml L-glutamine (made by Flow Laboratories Co.) was used. The action overcoming resistance to an anti-neoplastic agent and effect in enforcing the effect of an anti-neoplastic agent obtained through co-administration of the anti-neoplastic agent doxorubicin (adriamycin, ADM) and the test compounds were tested as follows:
The test cells were suspended in the incubation medium and adjusted to a cell density of about 200 cells/ml. 2 ml portions of the cell suspension were placed in petri dishes and incubated in a carbon dioxide gas incubator (5% CO2, 95% air) at 37° C. for 24 hours. Next, predetermined concentrations of aqueous ADM solutions and dimethyl sulfoxide (DMSO) solutions of predetermined concentrations of the test compounds were added into 5 to 10 μl portions, then incubation was continued for 7 days. After the end of the incubation, the samples were fixed by methanol, Giemsa staining was performed, the number of colonies in each dish was counted, and a volume reaction curve was prepared. This was used to calculate the ADM concentration at a 50% cell survival rate (LD50) and judge the action overcoming resistance to an anti-neoplastic agent and effect in enhancing the effect of an anti-neoplastic agent.
The LD50 concentration of ADM in the ADM control group for KB cells was shown as the resistance degree "1" and the other LD50 concentrations were indexed against this to calculate the resistance degrees. In Table 2, ADM alone (control) is the group administered ADM alone, ADM+Compound 1 is the group co-administered ADM and Compound 1 (1 μg /ml) and so on down to ADM+Compound 19 which is the group co-administered ADM and Compound 19 (1 μg /ml).
A volume reaction curve was prepared and the resistance calculated. In the Tables, VCR alone (control) is the group administered VCR alone, VCR+Compound 1 is the group co-administered VCR and Compound 1(1 μg /ml) and so on down to VCR+Compound 16 which is the group co-administered VCR and Compound 16 (1 μg/ml).

[2] = test system: VCR resistant murine leukemia (P388/VCR) cells; test: In vivo effect of overcoming resistance with etoposide (VP-16) in P388/VCR bearing mice (intravenous); set-up: species or system CDF1 male mice; details: VP-16 (3 mg/kg) + compound (40 mg/kg), i.v., five days; for Effect overcoming resistance (T/V %): vs VP-16 alone; for Rate of prolongation of life (T/C %): vs non-administered control
Procedure: (b) Separately, groups of six CDF1 male mice were intravenously given transplants of 1.2×10^5 VCR resistant murine leukemia (P388/VCR) cells. The compound of the present invention (20 or 40 mg/kg) was dissolved in 0.01N hydrochloric acid. Etoposide (VP-16, 3 mg/kg) was dissolved in a physiological saline solution. These were administered intravenously for five days and the days of survival were found. In the same way as (a), the rate of prolongation of life with respect to the control (T/C) and the effect in overcoming the resistance to an anti-neoplastic agent (T/V) were found. In Table 6, the control is the non-administered group, VP-16 alone is the group administered VP-16 (3 mg/kg) and VP-16+Compound 5 is the group co-administered VP-16 (3 mg/kg) and Compound 5 (40 mg/kg) and so on to VP-16+Compound 16 which is the group co-administered VP-16 (3 mg/kg) and Compound 16 (40 mg/kg).

[3] = Acute toxicity test (b), intraperitoneal, five mice per group; details: mouse, in vivo, ip, groups of five, 1000 mg to 250 mg/kg
Procedure: (§2) (a) Animals used: ICR male mice (Charles River Japan), 7 to 8 weeks old, were used three to a group.
(§3) Test method: The compound of the present invention was suspended in 0.5% sodium carboxymethyl cellulose(CMC-Na) containing 0.1% Tween 80. […] The survival of the animals was examined up to 7 days after administration, then the Van Der Wearder area method was used to calculate the LD50 value.
(b) Groups of five mice were tested in the same way as in (a) except that the drug was administered intraperitoneally from 1000 mg by a rate of 1/√2 until 250 mg/kg.

[4] = test system: VCR resistant murine leukemic (P388/VCR) cells; test: In vivo effect of overcoming resistance to vincristine in VCR resistant murine leukemia cell bearing mice (intraperitoneal); set-up: species or system CDF1 male mice; details: VCR (100 μg/kg) + compound (100 mg/kg), i.p., 5 days
Procedure: (a) 10^6 VCR resistant murine leukemic (P388/VCR) cells were transplanted intraperitoneally to groups of six CDF1 male mice. The compound of the present invention (10 or 100 mg/kg) was suspended in 0.5% sodium carboxymethyl cellulose containing 0.1% Tween 80, while the VCR (100 μg/kg) was dissolved in physiological saline. These were each administered intraperitoneally over 5 days and the mice observed to find the days of survival and the rate of prolongation of life with respect to the control (T/C). The effect in overcoming resistance to an anti-neoplastic agent (T/V) was found from the following formula:
Effect in overcoming resistance to anti-neoplastic agent (T/V%)=(Rate of prolongation of life when co-administering VCR and compound of present invention (T/C%))/(Rate of prolongation of life by VCR alone
In Table 5, "Control" is the non-administered group, VCR alone is the group administered just VCR (100 μg /kg), VCR+Compound 1 is the group co-administered VCR (100 μg /kg) and Compound 1 (100 mg/kg) and so on to VCR+Compound 14* which is the group co-administered VCR (100 μg /kg) and Compound 14 (10 mg/kg).

[5] = Acute toxicity test (a), intraperitoneal, three animals per group; details: mouse, in vivo, ip, ICR male mice, up to 7 days after administration
Text: as §2, §3

[6] = test system: VJ-300 cells (multidrug resistant clones of KB cells); test: In vitro suppression of proliferation (colony formation) of VJ-300 cells by co-administration with doxorubicin; format: cell-based, Human; details: ADM alone (Control); relative to KB = 1
Procedure: In Vitro Test of Effect of Suppression of Proliferation of Cancer Cells by Co-Administration with Doxorubicin
as §1, with “Human epipharynx cancer derived cancer KB cells (sensitive cells) and their multidrug resistant clones VJ-300 cells (resistant cells) were used as test cells. As” for “As”
The test cells were suspended in the incubation medium and adjusted to a cell density of about 200 cells/ml. 2 ml portions of the cell suspension were placed in petri dishes and incubated in a carbon dioxide gas incubator (5% CO2, 95% air) at 37° C. for 24 hours. […] After the end of the incubation, the samples were fixed by methanol, Giemsa staining was performed, the number of colonies in each dish was counted, and a volume reaction curve was prepared. […]

| SMILES | Resistance with VCR, VJ-300 (resistance degree) ([1]; Table 4) | Days of survival [2] [days] | Effect overcoming resistance (T/V %) [2] [%] | Rate of prolongation of life (T/C %) [2] [%] | LD50 at 168 h [3] [mg/kg] | Resistance with VCR, VJ-300 (resistance degree) ([1]; Table 3) | Days of survival [4] [days] | Effect overcoming resistance (T/V %) ([4]; vs VCR alone) [%] | Rate of prolongation of life (T/C %) ([4]; vs non-administered control) [%] | LD50 at 168 h [5] [mg/kg] | Resistance at ADM, VJ-300 (resistance degree) [6] |
| --- | --- | --- | --- | --- | --- | --- | --- | --- | --- | --- | --- |
| CCCN1CCCC(C(=O)NN=Cc2c(-c3ccccc3)nc3sc4c(n23)CCCC4)C1 (stereo not shown) [Compound 12, 5,6,7,8-tetrahydro-2-phenyl-3-[N-propyl-3-piperidylcarbonylaminoiminomethyl]imidazo[2,1-b]benzothiazole hydrochloride] | 1.3 | 13.2 | 118 | 128 | 592 |  |  |  |  |  |  |
| CN1CCCC(C(=O)NN=Cc2c(-c3ccccc3)nc3sc4c(n23)CCCC4)C1 (stereo not shown) [Compound 5, 5,6,7,8-tetrahydro-2-phenyl-3-(N-methyl-3-piperidylcarbonylaminoiminomethyl)imidazo[2,1-b]benzothiazole] |  | 14.0 | 125 | 136 |  | 1.2 | 14.38 | 130 | 138 | 604 |  |
| COc1cccc2c1C(=O)c1c(O)c3c(c(O)c1C2=O)C[C@@](O)(C(=O)CO)C[C@@H]3O[C@H]1C[C@H](N)[C@H](O)[C@H](C)O1 [ADM, doxorubicin] |  |  |  |  |  |  |  |  |  |  | 46.7 |
| CN1CCCC(C(=O)NN=Cc2c(-c3ccccc3)nc3sc4ccccc4n23)C1 (stereo not shown) [Compound 15, 2-phenyl-3-[N-methyl-3-piperidylcarbonylaminoiminomethyl]imidazo[2,1-b]benzothiazole hydrochloride] | 3.1 | 13.0 | 116 | 126 | ≥ 1000 |  |  |  |  |  |  |
